Values of other authors as cited in patent US9061040B2, “Combination therapy for breast cancer” (priority 2011, dated 2015).

Key:
liver cancer = details: 45 mg daily for two years, women with viral liver cirrhosis
[1] = 180-300 mg/day over 10 years
prostate cancer = details: male smokers
advanced prostate cancer = details: supplemental intake greater than 400 IU/day; current smokers or quit within the past 10 years

menaquinone [vitamin K2 (menaquinone)]
less likely to develop liver cancer (liver cancer): ~90%

CC1=C(/C=C/C(C)=C/C=C/C(C)=C/C=C/C=C(C)/C=C/C=C(C)/C=C/C2=C(C)CCCC2(C)C)C(C)(C)CCC1 [β-carotene]
toxicity [1]: did not show any toxicity

vitamin E
reduction of prostate cancer cases (prostate cancer; 50 mg daily versus no vitamin E): one-third reduction
new cases of prostate cancer among participants who received vitamin E (prostate cancer; 50 mg daily, 5 to 8-year intervention, 147 cases without vitamin E, 246 in total): 99 cases
reduction in risk of advanced prostate cancer (advanced prostate cancer): 71%
